Five compounds from patent US10231954B2, “Neurodegenerative therapies” (LYTIX BIOPHARMA AS, priority 2014, dated 2019) can be followed below.

The target of assay [1] is MKK2 (Homo sapiens, UniProt P36507). Briefly: Kinase profiling MKK2. Type of assay: biochemical. To be noted: read-out: residual kinase activity, MKK2. An excerpt: (§1) Any value less that 25 is considered to be highly significant inhibition.
Assay [2] addresses ERK1 (Homo sapiens, UniProt P27361). Briefly: Kinase profiling ERK1. The format is biochemical. Particulars: read-out: residual kinase activity, ERK1.
Excerpt: as §1

Assay [3] deals with JNK1 (Homo sapiens, UniProt P45983). Briefly: Kinase profiling JNK1. The format is biochemical. Particulars: read-out: residual kinase activity, JNK1.
Excerpt: as §1

In assay [4] the target is PKBb (Homo sapiens, UniProt P31751). Nature of the assay: Kinase profiling PKBb. Particulars: read-out: residual kinase activity, PKBb. The format is biochemical.
Excerpt: as §1

Assay [5] deals with T1, SGK1 (Homo sapiens, UniProt O00141).
T1 sequence (O00141 1-431): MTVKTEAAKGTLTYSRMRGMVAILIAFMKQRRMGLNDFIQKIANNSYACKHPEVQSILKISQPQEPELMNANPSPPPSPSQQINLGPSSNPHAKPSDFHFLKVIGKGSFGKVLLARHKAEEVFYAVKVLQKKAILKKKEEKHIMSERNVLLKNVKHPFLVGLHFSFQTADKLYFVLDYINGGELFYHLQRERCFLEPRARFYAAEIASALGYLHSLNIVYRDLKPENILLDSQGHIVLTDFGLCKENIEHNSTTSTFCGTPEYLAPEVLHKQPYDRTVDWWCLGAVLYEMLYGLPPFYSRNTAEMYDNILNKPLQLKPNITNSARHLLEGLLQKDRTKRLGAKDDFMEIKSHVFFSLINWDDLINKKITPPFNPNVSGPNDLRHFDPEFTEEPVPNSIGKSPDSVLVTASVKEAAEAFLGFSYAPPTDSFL
Briefly: Kinase profiling SGK1. Type of assay: biochemical. To be noted: read-out: residual kinase activity, SGK1.
Excerpt: as §1

Assay [6] has as its target T2, PKCz (Homo sapiens, UniProt Q05513).
T2 sequence (Q05513 1-592): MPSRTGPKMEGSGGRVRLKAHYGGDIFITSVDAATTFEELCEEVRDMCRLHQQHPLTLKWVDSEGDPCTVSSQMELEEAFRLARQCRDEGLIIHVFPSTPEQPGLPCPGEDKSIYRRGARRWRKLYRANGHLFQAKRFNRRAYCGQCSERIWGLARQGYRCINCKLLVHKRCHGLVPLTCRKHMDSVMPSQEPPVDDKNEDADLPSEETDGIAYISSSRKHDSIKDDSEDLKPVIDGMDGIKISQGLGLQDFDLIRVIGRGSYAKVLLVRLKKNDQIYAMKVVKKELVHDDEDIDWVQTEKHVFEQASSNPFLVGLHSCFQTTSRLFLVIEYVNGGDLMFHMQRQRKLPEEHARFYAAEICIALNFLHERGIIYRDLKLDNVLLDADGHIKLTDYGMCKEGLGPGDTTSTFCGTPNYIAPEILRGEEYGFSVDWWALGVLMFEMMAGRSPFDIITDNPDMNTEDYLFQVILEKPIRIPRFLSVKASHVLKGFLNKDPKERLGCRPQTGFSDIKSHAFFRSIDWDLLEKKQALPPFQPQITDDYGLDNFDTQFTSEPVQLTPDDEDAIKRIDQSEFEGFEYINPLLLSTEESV
Nature of the assay: Kinase profiling PKCz. Type of assay: biochemical. Particulars: read-out: residual kinase activity, PKCz.
Excerpt: as §1

The target in assay [7] is CAMK1 (Homo sapiens, UniProt Q14012). Briefly: Kinase profiling CAMK1. Type of assay: biochemical. Particulars: read-out: residual kinase activity, CAMK1.
Excerpt: as §1

Assay [8] concerns the target T3, LKB1 (Homo sapiens, UniProt Q15831).
T3 sequence (Q15831 1-433): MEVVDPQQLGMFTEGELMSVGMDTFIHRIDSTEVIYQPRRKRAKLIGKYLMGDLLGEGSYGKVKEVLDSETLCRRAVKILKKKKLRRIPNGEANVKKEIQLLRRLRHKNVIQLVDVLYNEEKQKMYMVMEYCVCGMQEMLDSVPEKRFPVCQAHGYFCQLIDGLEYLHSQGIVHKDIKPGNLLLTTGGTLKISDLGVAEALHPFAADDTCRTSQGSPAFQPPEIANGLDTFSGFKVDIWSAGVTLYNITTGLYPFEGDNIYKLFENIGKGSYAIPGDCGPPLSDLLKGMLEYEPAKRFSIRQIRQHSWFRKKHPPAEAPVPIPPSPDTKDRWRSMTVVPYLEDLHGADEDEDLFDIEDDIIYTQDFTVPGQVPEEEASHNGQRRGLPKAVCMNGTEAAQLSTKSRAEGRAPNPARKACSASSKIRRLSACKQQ
T3 sequence (Q7RTN6 1-431 partner): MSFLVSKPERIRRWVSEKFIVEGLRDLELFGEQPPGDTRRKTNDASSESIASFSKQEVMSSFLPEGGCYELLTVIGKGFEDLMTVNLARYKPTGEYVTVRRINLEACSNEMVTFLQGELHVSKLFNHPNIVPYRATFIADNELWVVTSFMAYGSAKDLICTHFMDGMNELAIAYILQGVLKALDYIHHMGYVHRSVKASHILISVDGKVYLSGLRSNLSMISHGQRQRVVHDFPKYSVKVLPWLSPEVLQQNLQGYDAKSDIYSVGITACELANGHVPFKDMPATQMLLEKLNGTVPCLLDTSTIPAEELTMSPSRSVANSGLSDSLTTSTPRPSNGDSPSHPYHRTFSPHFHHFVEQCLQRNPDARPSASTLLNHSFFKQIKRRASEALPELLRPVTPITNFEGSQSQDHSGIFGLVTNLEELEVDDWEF
T3 sequence (Q9Y376 1-341 partner): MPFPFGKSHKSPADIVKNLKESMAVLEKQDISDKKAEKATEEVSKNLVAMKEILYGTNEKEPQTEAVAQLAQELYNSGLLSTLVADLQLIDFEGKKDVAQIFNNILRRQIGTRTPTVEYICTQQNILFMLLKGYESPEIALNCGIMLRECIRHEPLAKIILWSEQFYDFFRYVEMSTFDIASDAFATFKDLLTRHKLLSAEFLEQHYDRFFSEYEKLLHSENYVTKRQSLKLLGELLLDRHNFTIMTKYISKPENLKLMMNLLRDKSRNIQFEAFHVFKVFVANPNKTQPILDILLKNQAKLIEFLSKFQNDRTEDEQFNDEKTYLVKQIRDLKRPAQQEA
Briefly: Kinase profiling LKB1. Type of assay: biochemical. Particulars: read-out: residual kinase activity, LKB1.
Excerpt: as §1

In assay [9] the test system is CK2. Briefly: Kinase profiling CK2. Type of assay: biochemical.
Excerpt: as §1

In assay [10] the target is SRPK1 (Homo sapiens, UniProt Q96SB4). Briefly: Kinase profiling SRPK1. To be noted: read-out: residual kinase activity, SRPK1. Type of assay: biochemical.
Excerpt: as §1

In assay [11] the target is MLK3 (Homo sapiens, UniProt Q16584). Briefly: Kinase profiling MLK3. The format is biochemical. To be noted: read-out: residual kinase activity, MLK3.
Excerpt: as §1

Assay [12] deals with IGF-1R (Homo sapiens, UniProt P08069). Nature of the assay: Kinase profiling IGF-1R. The format is biochemical. To be noted: read-out: residual kinase activity, IGF-1R.
Excerpt: as §1

Assay [13] concerns AMPK (hum). Briefly: Kinase profiling AMPK (hum). Type of assay: biochemical, human.
Excerpt: as §1

[14] abbreviates: 100 micromolar inhibitor concentration, 100 is no change.
The mark [15] stands for this setting: 100 micromolar inhibitor, 100 = no change.

Like-named read-outs stand apart in the source and are kept apart here.

PKBb, sequence (P31751 whole entry): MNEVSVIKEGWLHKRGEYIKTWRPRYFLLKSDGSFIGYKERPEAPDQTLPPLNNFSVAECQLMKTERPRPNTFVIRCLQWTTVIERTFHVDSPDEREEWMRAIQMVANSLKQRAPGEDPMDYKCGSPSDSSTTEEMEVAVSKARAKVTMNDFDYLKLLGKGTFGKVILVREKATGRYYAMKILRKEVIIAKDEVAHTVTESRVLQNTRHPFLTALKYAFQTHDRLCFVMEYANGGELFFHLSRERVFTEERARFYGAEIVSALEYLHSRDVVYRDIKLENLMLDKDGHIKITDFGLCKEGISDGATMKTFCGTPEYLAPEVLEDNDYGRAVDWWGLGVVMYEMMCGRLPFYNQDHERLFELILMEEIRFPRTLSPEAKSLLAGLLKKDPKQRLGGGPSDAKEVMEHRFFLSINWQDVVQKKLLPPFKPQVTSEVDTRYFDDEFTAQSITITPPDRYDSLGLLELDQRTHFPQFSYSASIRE
SRPK1, sequence (Q96SB4 whole entry, species assumed): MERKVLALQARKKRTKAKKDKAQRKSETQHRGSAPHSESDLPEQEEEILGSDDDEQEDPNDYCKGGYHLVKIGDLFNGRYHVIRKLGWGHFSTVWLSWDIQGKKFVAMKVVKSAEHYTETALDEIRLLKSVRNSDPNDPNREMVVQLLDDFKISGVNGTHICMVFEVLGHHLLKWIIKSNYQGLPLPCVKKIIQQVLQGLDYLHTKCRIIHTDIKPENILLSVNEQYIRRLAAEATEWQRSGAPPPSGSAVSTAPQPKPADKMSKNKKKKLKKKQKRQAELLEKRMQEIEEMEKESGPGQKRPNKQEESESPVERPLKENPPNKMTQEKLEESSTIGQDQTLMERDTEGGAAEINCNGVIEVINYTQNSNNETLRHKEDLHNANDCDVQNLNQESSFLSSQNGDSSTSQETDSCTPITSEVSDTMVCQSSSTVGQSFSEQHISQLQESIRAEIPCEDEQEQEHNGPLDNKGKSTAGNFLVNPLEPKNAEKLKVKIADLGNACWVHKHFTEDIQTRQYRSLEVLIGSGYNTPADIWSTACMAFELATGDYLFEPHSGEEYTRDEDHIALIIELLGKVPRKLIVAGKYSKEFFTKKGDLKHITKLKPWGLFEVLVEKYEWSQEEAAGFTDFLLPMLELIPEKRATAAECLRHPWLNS
MLK3, sequence (Q16584 whole entry, species assumed): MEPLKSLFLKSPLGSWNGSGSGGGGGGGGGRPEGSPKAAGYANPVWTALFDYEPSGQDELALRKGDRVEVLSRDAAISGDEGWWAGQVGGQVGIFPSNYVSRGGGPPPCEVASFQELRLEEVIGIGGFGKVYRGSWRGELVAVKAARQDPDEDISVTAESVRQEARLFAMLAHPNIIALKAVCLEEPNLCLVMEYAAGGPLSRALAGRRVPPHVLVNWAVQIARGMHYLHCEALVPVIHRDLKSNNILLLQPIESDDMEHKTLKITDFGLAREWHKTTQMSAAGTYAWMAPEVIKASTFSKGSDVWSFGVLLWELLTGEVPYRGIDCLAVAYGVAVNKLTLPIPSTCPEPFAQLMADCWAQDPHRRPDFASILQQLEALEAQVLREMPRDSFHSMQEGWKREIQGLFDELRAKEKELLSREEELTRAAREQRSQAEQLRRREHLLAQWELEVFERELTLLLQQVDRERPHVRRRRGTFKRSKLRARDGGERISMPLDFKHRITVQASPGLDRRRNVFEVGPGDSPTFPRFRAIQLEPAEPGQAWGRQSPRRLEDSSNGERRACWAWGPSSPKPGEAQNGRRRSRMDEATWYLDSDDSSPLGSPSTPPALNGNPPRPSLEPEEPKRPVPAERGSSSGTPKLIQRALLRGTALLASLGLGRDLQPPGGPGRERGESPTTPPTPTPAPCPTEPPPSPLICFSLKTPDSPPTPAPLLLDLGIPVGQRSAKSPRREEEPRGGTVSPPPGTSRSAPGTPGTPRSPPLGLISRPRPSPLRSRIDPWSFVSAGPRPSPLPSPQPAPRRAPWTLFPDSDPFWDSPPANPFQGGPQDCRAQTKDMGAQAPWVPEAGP
JNK1, sequence (P45983 whole entry, species assumed): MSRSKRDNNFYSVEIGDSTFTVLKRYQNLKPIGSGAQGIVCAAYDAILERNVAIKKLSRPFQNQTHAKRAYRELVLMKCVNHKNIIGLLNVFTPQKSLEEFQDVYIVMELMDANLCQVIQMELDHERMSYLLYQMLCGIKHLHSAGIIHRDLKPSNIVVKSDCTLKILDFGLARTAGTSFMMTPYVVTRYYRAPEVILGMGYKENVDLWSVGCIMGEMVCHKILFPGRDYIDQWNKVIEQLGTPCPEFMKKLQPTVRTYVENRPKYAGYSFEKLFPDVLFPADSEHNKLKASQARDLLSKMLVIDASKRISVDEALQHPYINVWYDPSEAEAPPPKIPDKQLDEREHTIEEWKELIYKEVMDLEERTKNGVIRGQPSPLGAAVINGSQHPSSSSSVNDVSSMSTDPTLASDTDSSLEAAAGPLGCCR
MKK2, sequence (P36507 whole entry, species assumed): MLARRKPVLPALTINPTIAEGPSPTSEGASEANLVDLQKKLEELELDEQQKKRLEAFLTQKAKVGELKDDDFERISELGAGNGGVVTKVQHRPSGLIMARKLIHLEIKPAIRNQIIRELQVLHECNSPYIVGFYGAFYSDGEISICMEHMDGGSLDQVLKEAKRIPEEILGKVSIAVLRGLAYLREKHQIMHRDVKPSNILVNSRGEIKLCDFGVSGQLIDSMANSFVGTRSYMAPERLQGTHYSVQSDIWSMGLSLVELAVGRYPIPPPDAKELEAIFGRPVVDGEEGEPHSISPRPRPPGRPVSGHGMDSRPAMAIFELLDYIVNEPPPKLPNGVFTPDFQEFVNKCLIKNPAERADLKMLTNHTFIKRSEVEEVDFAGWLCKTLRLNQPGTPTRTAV
IGF-1R, sequence (P08069 31-1367, species assumed): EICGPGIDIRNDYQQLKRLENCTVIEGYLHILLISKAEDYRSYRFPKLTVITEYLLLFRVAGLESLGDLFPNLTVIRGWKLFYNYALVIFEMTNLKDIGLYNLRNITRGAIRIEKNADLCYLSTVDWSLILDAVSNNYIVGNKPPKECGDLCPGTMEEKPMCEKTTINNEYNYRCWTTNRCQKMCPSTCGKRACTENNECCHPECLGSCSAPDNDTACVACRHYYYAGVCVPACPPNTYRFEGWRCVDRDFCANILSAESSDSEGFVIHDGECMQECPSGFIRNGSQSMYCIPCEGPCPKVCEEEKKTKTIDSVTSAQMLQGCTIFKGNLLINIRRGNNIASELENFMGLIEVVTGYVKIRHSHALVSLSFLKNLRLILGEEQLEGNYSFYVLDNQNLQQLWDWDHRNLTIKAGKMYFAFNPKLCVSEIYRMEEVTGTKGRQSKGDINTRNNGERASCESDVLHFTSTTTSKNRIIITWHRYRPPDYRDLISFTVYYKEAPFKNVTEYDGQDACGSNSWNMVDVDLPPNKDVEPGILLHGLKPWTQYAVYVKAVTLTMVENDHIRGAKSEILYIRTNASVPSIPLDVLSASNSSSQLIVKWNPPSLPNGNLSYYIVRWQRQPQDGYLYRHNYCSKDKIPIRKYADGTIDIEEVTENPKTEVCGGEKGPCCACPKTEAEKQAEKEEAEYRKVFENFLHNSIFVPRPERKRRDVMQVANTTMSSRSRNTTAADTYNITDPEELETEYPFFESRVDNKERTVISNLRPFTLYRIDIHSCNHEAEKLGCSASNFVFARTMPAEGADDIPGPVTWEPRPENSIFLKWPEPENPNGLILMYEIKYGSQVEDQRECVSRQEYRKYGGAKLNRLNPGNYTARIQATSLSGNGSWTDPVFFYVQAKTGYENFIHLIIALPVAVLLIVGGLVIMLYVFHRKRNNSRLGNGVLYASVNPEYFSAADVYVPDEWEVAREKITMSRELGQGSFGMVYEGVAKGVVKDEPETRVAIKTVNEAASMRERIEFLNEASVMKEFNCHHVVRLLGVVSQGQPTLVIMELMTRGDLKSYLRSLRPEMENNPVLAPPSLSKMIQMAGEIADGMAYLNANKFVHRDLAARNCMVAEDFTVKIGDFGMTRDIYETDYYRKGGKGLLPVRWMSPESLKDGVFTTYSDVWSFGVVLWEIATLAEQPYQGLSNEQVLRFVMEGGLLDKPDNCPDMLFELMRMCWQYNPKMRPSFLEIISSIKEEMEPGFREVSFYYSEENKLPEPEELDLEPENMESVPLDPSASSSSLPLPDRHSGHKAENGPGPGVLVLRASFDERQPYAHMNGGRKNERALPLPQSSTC
ERK1, sequence (P27361 whole entry, species assumed): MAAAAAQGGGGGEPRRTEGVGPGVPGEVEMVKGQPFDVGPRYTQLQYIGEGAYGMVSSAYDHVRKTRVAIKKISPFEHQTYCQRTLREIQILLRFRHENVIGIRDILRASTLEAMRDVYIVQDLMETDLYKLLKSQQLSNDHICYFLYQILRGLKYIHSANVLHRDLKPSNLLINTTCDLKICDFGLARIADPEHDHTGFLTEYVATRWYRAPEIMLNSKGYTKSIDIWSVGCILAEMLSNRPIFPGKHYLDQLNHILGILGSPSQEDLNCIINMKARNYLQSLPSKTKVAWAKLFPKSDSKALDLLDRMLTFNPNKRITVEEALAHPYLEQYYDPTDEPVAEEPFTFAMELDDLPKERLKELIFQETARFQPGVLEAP
CAMK1, sequence (Q14012 whole entry, species assumed): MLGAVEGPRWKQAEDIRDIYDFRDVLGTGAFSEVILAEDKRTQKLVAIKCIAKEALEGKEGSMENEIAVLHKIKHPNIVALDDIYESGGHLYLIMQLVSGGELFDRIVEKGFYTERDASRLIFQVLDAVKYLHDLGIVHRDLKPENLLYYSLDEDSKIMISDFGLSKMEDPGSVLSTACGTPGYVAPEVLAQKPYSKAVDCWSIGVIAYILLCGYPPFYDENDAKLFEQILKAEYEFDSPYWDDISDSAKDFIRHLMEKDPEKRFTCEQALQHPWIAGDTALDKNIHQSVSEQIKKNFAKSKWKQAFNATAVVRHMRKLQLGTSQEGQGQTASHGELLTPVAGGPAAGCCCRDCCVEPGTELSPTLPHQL

Turning to `CC(=O)Nc1nc2cc(O)ccc2s1` [Compound 01-66, N-(5-hydroxybenzo[d]thiazol-2-yl)acetamide], the remaining activity at 100 µM in assay [1] amounted to 42%; in [2] it was 61%; in assay [3], 53%; in [4], 55%; in [5], 77%; in assay [6], 98%. The remaining activity at 100 µM in assay [7] turned out to be 69%; in [8], 38%; in [10] it was 59%; in [11] it was 41%; in assay [12], 26%. Besides, in assay [9] (setting [14]), the “residual kinase activity, CK2” value turned out to be 54.
As to `CC(=O)Nc1nc2ccc(O)cc2s1` [Compound 01-71], the remaining activity at 100 µM in [1] (setting [14]) is 48%; in [2] (setting [14]) it was 65%; in [3] (setting [14]) it was 72%; in [4] it was 57%; in assay [5] (setting [14]), 33%; in [6] (setting [14]) it was 74%. Besides, the remaining activity at 100 µM was 52% in [7] (setting [14]); 17% in [8] (setting [14]); 44% in assay [10] (setting [14]); 15% in [11] (setting [14]); 18% in assay [12] (setting [14]). Further, the “residual kinase activity, CK2” value in [9] (setting [14]) was 23.
`CC(=O)Nc1nc2ccc(C(F)(F)F)cc2s1` [Compound 01-90]: the remaining activity at 100 µM in assay [1] (setting [14]) stood at 73%; in [2] (setting [14]), 100%; in [3] (setting [14]), 104%; in [4] it was 100%; in [5] (setting [14]) it was 69%; in [6] (setting [14]), 81%. The remaining activity at 100 µM amounted to 64% in [7] (setting [14]); 79% in assay [8] (setting [14]); 41% in assay [10] (setting [14]); 51% in [11] (setting [14]); 84% in [12] (setting [14]). Besides, the “residual kinase activity, AMPK (hum)” value in [13] (setting [14]) is 74. Further, the “residual kinase activity, CK2” value in assay [9] (setting [14]) was 92.
For the compound `CC(=O)Nc1nc2ccc(C#N)cc2s1` [Compound 01-94], the remaining activity at 100 µM was 54% in assay [1] (setting [14]); 97% in [2] (setting [14]); 90% in [3] (setting [14]); 98% in assay [4]; 40% in assay [5] (setting [14]); 80% in assay [6] (setting [14]). In addition, the remaining activity at 100 µM in assay [7] (setting [14]) was determined as 80%; in assay [8] (setting [14]), 35%; in assay [10] (setting [14]), 47%; in [11] (setting [14]) it was 55%; in assay [12] (setting [14]), 78%. In assay [13] (setting [14]), the “residual kinase activity, AMPK (hum)” value came out at 40. For the same compound, in assay [9] (setting [14]), the “residual kinase activity, CK2” value came out at 66.
On to `CC(=O)Nc1cccc(NC(=O)c2nc3ccc(O)cc3s2)c1` [Compound 03-07, N-(3-acetamidophenyl)-6-hydroxybenzo[d]thiazole-2-carboxamide], for which the remaining activity at 100 µM in assay [1] (setting [15]) worked out at 88%; in assay [2] (setting [15]), 102%; in assay [3] (setting [15]), 103%; in assay [4] (setting [15]) it was 26%; in [5] (setting [15]), 64%; in assay [6] (setting [15]), 107%. Further, the remaining activity at 100 µM stood at 44% in assay [7] (setting [15]); 83% in assay [8] (setting [15]); 27% in [10] (setting [15]); 39% in assay [11] (setting [15]); 96% in assay [12] (setting [15]). Moreover, the “residual kinase activity, AMPK (hum)” value in [13] (setting [15]) came out at 34. In assay [9] (setting [15]), the “residual kinase activity, CK2” value came out at 35.
